Measurements reported in US20080194585A1, “Fungicidal Pyrazine Derivatives” (priority 2005, published 2008).
Marks after values point to notes of the source that are not given here.

Legend:
Conditions in all cases: 100 = 100% disease control, 0 = no control
Plasmopara viticola = experiment: Test D: grape downy mildew, spray after inoculation of grape seedlings; format: in vivo
Description: Upon removal, disease ratings were made. […] A dash (-) indicates no test results.

Phytophthora infestans = experiment: whole plant or invertebrate; format: in vivo
Septoria tritici = experiment: Test J: wheat leaf blotch, preventive spray on wheat seedlings; format: in vivo
Description: A dash (-) indicates no test results.

fusarium graminearium = experiment: Test I: wheat head scab, preventive spray on wheat seedlings
Description: (the causal agent of wheat head scab) and incubated in a saturated atmosphere at 20° C. for 72 h, and then moved to a growth chamber at 22° C. for 5 days, after which disease ratings were made.

[1] = system: Puccinia recondita f. sp. tritici; experiment: Test K: wheat leaf rust, preventive spray on wheat seedlings
Botrytis cinerea = experiment: Test E: tomato botrytis, preventive spray on tomato seedlings
Septoria nodorum = experiment: Test H: wheat glum blotch, preventive spray on wheat seedlings
Description: (the causal agent of wheat glum blotch) and incubated in a saturated atmosphere at 20° C. for 48 h, and then moved to a growth chamber at 22° C. for 5 days, after which disease ratings were made.

[2] = system: Erysiphe graminis f. sp. tritici; experiment: Test L: wheat powdery mildew, preventive spray on wheat seedlings
Sclerotinia sclerotiorum = experiment: Test C: cucumber white mold, preventive spray on cucumber seedlings
Pythium aphanidermatum = experiment: Test A: bluegrass pythium blight, preventive spray on bluegrass seedlings
Rhizoctonia oryzae = experiment: Test G: turf brown patch, preventive spray on creeping bent grass seedlings
Description: (the causal agent of turf brown patch) and incubated in a saturated atmosphere at 27° C. for 24 h, and then moved to a growth chamber at 27° C. for 5 days, after which disease ratings were made.

[3] = system: Colletotrichum orbiculare; experiment: Test B: cucumber Colletotrichum anthracnose, preventive spray on cucumber seedlings

| Compound | Test D disease control rating (Plasmopara viticola; 40 ppm (marked *)) | Test F disease control rating (Phytophthora infestans; 40 ppm (marked *)) | Test J disease control rating (Septoria tritici; 40 ppm (marked *)) | Test I disease control rating (fusarium graminearium; 40 ppm (marked *)) | Test K disease control rating ([1]; 40 ppm (marked *)) | Test E disease control rating (Botrytis cinerea; 40 ppm (marked *)) | Test H disease control rating (Septoria nodorum; 40 ppm (marked *)) | Test L disease control rating ([2]; 40 ppm (marked *)) | Test C disease control rating (Sclerotinia sclerotiorum; 40 ppm (marked *)) | Test A disease control rating (Pythium aphanidermatum; 40 ppm (marked *)) | Test G disease control rating (Rhizoctonia oryzae; 40 ppm (marked *)) | Test B disease control rating ([3]; 40 ppm (marked *)) | further results |
| --- | --- | --- | --- | --- | --- | --- | --- | --- | --- | --- | --- | --- | --- |
| O=c1c(-n2cncn2)nc(Cl)c(-c2c(F)cccc2F)n1Cc1cccc(Cl)c1 [compound 276] | 0* % | 0* % | 100* % | 0* % | 94* % | 98* % | 78* % | 0* % | 0* % | 0* % | 0* % | 0* % |  |
| N#Cc1nc(Cl)c(-c2c(F)cccc2F)n(Cc2cccc(Cl)c2)c1=O [compound 277] | 0* % | 0* % | 63* % | 0* % | 41* % | 0* % | 0* % | 0* % | 0* % | 0* % | 0* % | 0* % |  |
| Cc1ccn(-c2nc(Cl)c(-c3c(F)cccc3F)n(-c3ccccc3)c2=O)n1 [compound 278] | 31* % | 0* % | 100* % | 0* % | 100* % | 100* % | 100* % | 99* % | 0* % | 0* % | 92* % | 88* % |  |
| Cc1ccn(-c2nc(Cl)c(-c3c(F)cccc3F)n(Cc3ccccc3)c2=O)n1 [compound 279] | 0* % | 0* % | 100* % | 0* % | 100* % | 99* % | 98* % | 99* % | 0* % | 0* % | 41* % | 78* % |  |
| Cc1ccn(-c2nc(Cl)c(-c3c(F)cccc3F)n(Cc3ccccc3F)c2=O)n1 [compound 280] | 0* % | 0* % | 100* % | 0* % | 98* % | 99* % | 96* % | 69* % | 0* % | 0* % | 0* % | 57* % |  |
| CC[C@H](C)Cn1c(-c2ccc(F)cc2Cl)c(Br)nc(-n2cccn2)c1=O [compound 281] | 0* % | 0* % | 100* % | 0* % | 100* % | 100* % | 100* % | 100* % | 0* % | 0* % | 47* % | 100* % |  |
| CC[C@H](C)Cn1c(-c2ccc(F)cc2Cl)c(Br)nc(-n2ccc(C)n2)c1=O [compound 282] | 0* % | 0* % | 100* % | 0* % | 100* % | 100* % | 99* % | 100* % | 0* % | 0* % | 0* % | 100* % |  |
| CC[C@H](C)Cn1c(-c2ccc(F)cc2Cl)c(Br)nc(N2CCC=N2)c1=O [compound 283] | 0* % | 47* % | 100* % | 0* % | 96* % | 98* % | 0* % | 97* % | 0* % | 0* % | 0* % | 94* % |  |
| CCCCn1c(-c2ccc(F)cc2Cl)c(Br)nc(-n2cccn2)c1=O [compound 284] | 0* % | 16* % | 100* % | 0* % | 95* % | 94* % | 99* % | 96* % | 0* % | 0* % | 0* % | 0* % |  |
| CCCCn1c(-c2ccc(F)cc2Cl)c(Br)nc(-n2ccc(C)n2)c1=O [compound 285] | 0* % | 0* % | 100* % | 0* % | 89* % | 99* % | 85* % | 92* % | 0* % | 0* % | 0* % | 0* % |  |
| O=c1c(-n2cccn2)nc(Cl)c(-c2ccccc2Cl)n1Cc1ccccc1 [compound 288] |  |  | 100* % |  |  |  |  |  |  |  |  |  | Test D disease control rating (Plasmopara viticola; 200 ppm): 0%; Test F disease control rating (Phytophthora infestans; 200 ppm): 0%; Test I disease control rating (fusarium graminearium; 200 ppm): 0%; Test K disease control rating ([1]; 200 ppm): 91%; Test E disease control rating (Botrytis cinerea; 200 ppm): 100%; Test H disease control rating (Septoria nodorum; 200 ppm): 100%; Test L disease control rating ([2]; 200 ppm): 91%; Test C disease control rating (Sclerotinia sclerotiorum; 200 ppm): 0%; Test A disease control rating (Pythium aphanidermatum; 200 ppm): 0%; Test G disease control rating (Rhizoctonia oryzae; 200 ppm): 0%; Test B disease control rating ([3]; 200 ppm): 91% |
| Cc1ccn(-c2nc(Cl)c(C(C)C)n(CC(C)C)c2=O)n1 [compound 289] |  |  |  |  |  |  |  |  |  |  |  |  | Test D disease control rating (Plasmopara viticola; 200 ppm): 0%; Test F disease control rating (Phytophthora infestans; 200 ppm): 57%; Test J disease control rating (Septoria tritici; 200 ppm): 96%; Test I disease control rating (fusarium graminearium; 200 ppm): 0%; Test K disease control rating ([1]; 200 ppm): 100%; Test E disease control rating (Botrytis cinerea; 200 ppm): 100%; Test H disease control rating (Septoria nodorum; 200 ppm): 0%; Test L disease control rating ([2]; 200 ppm): 79%; Test C disease control rating (Sclerotinia sclerotiorum; 200 ppm): 0%; Test A disease control rating (Pythium aphanidermatum; 200 ppm): 0%; Test G disease control rating (Rhizoctonia oryzae; 200 ppm): 95%; Test B disease control rating ([3]; 200 ppm): 0% |
| CC(C)Cn1c(C2CCCC2)c(Cl)nc(-n2cccn2)c1=O [compound 290] |  |  |  |  |  |  |  |  |  |  |  |  | Test D disease control rating (Plasmopara viticola; 200 ppm): 0%; Test F disease control rating (Phytophthora infestans; 200 ppm): 0%; Test J disease control rating (Septoria tritici; 200 ppm): 100%; Test I disease control rating (fusarium graminearium; 200 ppm): 0%; Test K disease control rating ([1]; 200 ppm): 100%; Test E disease control rating (Botrytis cinerea; 200 ppm): 100%; Test H disease control rating (Septoria nodorum; 200 ppm): 0%; Test L disease control rating ([2]; 200 ppm): 99%; Test C disease control rating (Sclerotinia sclerotiorum; 200 ppm): 0%; Test A disease control rating (Pythium aphanidermatum; 200 ppm): 0%; Test G disease control rating (Rhizoctonia oryzae; 200 ppm): 77%; Test B disease control rating ([3]; 200 ppm): 0% |
